The values that follow come from ChEMBL document CHEMBL5465560, “Selectivity Literature for EUbOPEN Chemogenomic Library” (2024).

In assay [1] the target is Dual specificity tyrosine-phosphorylation-regulated kinase 1B (Homo sapiens, UniProt Q9Y463). Description: Selectivity interaction (Kinase panel (Z-LYTE Assay)) EUB0001632a DYRK1B. As to conditions: at 10 µM.
Assay [2] addresses T1, Serine/threonine-protein kinase STK11 (Homo sapiens) (UniProt Q15831).
T1 sequence (whole entry): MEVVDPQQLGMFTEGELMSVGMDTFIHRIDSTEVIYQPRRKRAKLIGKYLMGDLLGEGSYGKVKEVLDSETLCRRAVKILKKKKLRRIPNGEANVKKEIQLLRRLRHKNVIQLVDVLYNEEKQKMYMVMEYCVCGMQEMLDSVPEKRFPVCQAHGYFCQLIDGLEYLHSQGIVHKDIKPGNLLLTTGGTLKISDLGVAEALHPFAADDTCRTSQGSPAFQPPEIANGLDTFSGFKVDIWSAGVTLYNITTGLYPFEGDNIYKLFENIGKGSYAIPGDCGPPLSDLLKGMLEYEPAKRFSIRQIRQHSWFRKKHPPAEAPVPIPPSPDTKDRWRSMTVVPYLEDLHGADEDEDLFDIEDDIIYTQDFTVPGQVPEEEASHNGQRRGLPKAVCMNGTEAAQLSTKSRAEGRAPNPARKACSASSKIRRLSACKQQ
Description: Selectivity interaction (KinomeScan (DiscoverX)) EUB0000229b STK11. As to conditions: at 10 µM.

The target in assay [3] is T2, TGF-beta receptor type-1 (Homo sapiens) (UniProt P36897).
T2 sequence (whole entry): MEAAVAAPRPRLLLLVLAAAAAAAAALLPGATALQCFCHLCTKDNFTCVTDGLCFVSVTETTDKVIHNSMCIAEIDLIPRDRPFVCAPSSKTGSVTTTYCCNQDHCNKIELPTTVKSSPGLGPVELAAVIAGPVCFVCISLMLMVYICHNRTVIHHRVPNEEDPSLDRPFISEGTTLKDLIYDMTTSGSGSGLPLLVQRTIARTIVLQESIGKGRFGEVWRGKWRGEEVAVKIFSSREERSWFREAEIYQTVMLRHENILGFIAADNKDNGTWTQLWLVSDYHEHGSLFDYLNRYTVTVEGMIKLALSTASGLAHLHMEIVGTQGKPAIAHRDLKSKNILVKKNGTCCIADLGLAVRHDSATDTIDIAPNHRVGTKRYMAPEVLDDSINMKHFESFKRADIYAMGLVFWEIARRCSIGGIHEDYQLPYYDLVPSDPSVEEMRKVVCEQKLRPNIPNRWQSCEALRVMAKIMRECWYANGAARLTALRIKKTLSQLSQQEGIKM
As to the kind of experiment: Selectivity interaction (KinomeScan (DiscoverX)) EUB0000229b TGFBR1. The conditions noted are these: at 10 µM.

For assay [4], the target named is Cyclin-dependent kinase 8 (Homo sapiens, UniProt P49336). As to the kind of experiment: Selectivity interaction (KinomeScan (DiscoverX)) EUB0000655a CDK8. The conditions noted are these: at 10 µM.
Chain of Cyclin-dependent kinase 8 (P49336 whole entry): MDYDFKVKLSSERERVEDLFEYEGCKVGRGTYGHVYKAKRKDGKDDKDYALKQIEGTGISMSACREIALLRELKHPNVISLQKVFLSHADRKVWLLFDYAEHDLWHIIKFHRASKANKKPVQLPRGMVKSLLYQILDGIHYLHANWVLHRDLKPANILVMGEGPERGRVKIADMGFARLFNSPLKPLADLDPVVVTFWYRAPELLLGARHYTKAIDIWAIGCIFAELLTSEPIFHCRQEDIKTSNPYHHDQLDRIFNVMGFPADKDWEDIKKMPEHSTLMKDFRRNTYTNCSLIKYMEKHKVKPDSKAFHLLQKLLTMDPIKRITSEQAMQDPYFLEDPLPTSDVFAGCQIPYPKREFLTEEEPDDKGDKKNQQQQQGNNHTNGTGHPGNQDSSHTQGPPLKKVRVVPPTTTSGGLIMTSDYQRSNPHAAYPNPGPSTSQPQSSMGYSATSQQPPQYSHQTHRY
Assay [5] deals with Bone morphogenetic protein receptor type-1B (Homo sapiens, UniProt O00238). Description: Selectivity interaction (KinomeScan (DiscoverX)) EUB0001079a BMPR1B. As to conditions: at 1 µM.
Chain of Bone morphogenetic protein receptor type-1B (O00238 whole entry): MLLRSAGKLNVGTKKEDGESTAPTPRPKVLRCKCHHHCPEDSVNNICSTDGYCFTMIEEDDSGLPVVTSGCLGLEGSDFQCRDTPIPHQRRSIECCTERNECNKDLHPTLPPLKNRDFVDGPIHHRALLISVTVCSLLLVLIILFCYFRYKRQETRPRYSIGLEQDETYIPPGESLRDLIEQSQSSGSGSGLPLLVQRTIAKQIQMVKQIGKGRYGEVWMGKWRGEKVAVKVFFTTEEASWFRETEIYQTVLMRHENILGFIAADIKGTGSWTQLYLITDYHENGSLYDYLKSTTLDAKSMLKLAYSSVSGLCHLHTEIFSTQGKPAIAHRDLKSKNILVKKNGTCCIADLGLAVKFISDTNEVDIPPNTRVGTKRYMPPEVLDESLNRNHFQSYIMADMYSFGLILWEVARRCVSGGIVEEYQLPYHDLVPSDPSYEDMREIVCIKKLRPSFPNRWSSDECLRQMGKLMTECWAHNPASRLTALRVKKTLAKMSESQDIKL
Assay [6] can be described thus: Selectivity interaction (Inhibition of ex vivo anti-IgM/IL-4 -induced proximal pAKT formation in rats) EUB0000877a PIK3CD.
Assay [7] addresses T3, Megakaryocyte-associated tyrosine-protein kinase (Homo sapiens) (UniProt P42679).
T3 sequence (whole entry): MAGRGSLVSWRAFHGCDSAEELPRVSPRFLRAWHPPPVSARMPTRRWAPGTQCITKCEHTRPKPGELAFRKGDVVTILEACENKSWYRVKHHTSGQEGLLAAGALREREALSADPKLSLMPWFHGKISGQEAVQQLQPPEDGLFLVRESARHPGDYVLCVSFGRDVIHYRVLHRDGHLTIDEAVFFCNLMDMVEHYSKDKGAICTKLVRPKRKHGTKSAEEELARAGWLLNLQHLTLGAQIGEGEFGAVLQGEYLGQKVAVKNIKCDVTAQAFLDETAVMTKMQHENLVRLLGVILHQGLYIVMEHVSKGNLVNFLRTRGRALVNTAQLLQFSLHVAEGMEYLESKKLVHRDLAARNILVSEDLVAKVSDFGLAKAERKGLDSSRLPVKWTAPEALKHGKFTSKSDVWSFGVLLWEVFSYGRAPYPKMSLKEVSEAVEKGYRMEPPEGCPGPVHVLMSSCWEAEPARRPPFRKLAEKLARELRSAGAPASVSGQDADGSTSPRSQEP
Description: Selectivity interaction (Kinase panel (Invitrogen)) EUB0000639a MATK. As to conditions: at 200 nM.

Assay [8] concerns the target STE20-like serine/threonine-protein kinase (Homo sapiens, UniProt Q9H2G2). As to the kind of experiment: Selectivity interaction (ActivX KiNativ screen (kinase selectivity in THP-1 cell lysates)) EUB0000639a SLK. The assay is classed as subcellular. As to conditions: lysate.
Assay [9] concerns the target PAS domain-containing serine/threonine-protein kinase (Homo sapiens) (UniProt Q96RG2). Description: Selectivity interaction (Kinase screening (Nanosyn)) EUB0000604a PASK.
For assay [10], the target named is T4, Serine/threonine-protein kinase haspin (Homo sapiens) (UniProt Q8TF76).
T4 sequence (whole entry): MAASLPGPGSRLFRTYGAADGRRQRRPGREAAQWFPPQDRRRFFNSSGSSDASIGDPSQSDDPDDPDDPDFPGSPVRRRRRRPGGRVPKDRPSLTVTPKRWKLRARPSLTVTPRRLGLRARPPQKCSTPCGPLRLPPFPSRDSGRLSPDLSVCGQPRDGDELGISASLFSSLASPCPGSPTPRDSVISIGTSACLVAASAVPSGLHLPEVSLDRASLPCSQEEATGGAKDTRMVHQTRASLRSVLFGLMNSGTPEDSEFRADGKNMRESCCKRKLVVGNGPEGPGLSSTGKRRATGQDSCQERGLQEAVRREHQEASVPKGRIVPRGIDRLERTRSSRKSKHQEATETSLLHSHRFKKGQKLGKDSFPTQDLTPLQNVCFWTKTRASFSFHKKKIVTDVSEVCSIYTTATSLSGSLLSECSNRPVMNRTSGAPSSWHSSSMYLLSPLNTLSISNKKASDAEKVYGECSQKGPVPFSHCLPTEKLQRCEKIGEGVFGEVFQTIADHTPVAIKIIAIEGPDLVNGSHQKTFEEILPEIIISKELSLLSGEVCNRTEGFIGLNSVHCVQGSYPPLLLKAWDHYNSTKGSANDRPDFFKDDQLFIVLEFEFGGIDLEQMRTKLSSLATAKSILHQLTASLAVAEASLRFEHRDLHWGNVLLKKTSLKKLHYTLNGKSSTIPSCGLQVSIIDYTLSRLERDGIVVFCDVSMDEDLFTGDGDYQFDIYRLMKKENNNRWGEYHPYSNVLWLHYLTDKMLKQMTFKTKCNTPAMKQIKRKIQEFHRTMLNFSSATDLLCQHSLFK
Description: Selectivity interaction (ProQinase) EUB0000171b GSG2.

In assay [11] the target is Lethal(3)malignant brain tumor-like protein 3 (Homo sapiens) (UniProt Q96JM7). As to the kind of experiment: Selectivity interaction (PWWP, WD40, and Tudor domain panel (DSLS measurements, literature)) EUB0000270b L3MBTL3.
Chain of Lethal(3)malignant brain tumor-like protein 3 (Homo sapiens) (Q96JM7 whole entry, the tested form may be a part): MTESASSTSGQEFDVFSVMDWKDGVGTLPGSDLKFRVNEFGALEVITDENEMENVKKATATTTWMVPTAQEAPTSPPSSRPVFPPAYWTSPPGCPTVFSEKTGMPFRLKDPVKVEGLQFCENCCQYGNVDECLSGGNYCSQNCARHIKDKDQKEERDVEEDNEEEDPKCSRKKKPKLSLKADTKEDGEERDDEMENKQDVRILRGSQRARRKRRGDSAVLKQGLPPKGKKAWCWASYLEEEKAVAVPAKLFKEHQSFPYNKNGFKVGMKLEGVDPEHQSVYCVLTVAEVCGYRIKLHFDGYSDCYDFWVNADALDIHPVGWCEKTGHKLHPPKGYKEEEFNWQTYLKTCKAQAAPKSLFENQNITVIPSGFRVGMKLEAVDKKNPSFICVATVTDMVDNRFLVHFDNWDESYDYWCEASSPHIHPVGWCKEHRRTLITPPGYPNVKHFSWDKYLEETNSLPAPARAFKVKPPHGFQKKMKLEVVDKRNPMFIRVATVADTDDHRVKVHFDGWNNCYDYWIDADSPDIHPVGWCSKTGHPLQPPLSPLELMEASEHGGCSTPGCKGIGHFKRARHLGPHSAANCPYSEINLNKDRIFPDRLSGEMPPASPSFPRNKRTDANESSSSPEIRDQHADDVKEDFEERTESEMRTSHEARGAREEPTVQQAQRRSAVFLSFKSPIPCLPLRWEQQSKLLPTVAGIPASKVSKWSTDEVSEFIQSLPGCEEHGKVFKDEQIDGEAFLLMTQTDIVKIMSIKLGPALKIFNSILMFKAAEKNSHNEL

Chain of STE20-like serine/threonine-protein kinase (Q9H2G2 whole entry, looked up, the tested form may be a part): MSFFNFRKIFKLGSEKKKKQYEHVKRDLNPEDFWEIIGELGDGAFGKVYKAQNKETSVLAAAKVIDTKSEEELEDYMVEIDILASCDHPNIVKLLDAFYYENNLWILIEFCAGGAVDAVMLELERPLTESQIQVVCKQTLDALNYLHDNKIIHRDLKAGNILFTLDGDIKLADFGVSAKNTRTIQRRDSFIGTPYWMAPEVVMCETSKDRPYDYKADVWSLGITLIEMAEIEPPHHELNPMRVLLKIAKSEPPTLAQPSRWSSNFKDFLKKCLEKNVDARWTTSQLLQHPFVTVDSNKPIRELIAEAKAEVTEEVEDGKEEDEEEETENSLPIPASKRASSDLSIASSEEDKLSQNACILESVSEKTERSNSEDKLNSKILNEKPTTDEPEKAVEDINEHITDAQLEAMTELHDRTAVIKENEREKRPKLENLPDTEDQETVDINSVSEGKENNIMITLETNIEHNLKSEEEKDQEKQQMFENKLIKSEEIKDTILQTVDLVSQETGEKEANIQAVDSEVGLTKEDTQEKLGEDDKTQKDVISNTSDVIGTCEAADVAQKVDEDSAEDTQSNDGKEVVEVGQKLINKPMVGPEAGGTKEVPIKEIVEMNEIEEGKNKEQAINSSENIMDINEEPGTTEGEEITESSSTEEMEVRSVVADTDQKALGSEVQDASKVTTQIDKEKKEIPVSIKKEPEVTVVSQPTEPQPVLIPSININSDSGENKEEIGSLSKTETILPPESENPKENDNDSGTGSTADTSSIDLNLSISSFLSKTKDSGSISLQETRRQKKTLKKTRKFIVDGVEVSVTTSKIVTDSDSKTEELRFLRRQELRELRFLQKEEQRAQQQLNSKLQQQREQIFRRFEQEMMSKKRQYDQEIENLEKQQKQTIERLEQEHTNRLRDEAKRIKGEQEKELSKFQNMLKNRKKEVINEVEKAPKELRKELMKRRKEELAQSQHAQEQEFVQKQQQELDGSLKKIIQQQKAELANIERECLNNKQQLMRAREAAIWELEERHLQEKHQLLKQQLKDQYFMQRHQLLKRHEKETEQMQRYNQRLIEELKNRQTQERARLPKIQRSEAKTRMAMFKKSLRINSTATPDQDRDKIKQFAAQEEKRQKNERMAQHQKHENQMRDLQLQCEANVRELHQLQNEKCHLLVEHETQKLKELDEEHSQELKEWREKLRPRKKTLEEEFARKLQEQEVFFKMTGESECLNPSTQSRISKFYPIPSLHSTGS
Chain of Dual specificity tyrosine-phosphorylation-regulated kinase 1B (Q9Y463 whole entry, looked up): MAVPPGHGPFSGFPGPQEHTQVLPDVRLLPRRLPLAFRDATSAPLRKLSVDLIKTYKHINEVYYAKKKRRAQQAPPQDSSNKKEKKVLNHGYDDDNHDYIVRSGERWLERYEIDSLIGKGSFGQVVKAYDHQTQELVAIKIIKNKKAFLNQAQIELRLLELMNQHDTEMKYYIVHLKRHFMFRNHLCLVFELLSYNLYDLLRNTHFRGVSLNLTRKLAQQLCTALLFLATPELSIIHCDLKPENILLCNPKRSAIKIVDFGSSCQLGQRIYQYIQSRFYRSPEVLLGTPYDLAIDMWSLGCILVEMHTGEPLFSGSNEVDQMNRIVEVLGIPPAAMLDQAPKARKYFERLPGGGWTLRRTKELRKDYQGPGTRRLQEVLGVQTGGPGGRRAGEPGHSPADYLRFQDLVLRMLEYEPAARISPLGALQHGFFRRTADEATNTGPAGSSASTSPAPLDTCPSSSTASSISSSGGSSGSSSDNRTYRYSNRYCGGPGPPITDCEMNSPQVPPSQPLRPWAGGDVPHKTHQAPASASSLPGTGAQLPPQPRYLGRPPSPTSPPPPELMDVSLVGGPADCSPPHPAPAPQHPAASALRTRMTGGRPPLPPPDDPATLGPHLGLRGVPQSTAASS
Chain of PAS domain-containing serine/threonine-protein kinase (Homo sapiens) (Q96RG2 whole entry, the tested form may be a part): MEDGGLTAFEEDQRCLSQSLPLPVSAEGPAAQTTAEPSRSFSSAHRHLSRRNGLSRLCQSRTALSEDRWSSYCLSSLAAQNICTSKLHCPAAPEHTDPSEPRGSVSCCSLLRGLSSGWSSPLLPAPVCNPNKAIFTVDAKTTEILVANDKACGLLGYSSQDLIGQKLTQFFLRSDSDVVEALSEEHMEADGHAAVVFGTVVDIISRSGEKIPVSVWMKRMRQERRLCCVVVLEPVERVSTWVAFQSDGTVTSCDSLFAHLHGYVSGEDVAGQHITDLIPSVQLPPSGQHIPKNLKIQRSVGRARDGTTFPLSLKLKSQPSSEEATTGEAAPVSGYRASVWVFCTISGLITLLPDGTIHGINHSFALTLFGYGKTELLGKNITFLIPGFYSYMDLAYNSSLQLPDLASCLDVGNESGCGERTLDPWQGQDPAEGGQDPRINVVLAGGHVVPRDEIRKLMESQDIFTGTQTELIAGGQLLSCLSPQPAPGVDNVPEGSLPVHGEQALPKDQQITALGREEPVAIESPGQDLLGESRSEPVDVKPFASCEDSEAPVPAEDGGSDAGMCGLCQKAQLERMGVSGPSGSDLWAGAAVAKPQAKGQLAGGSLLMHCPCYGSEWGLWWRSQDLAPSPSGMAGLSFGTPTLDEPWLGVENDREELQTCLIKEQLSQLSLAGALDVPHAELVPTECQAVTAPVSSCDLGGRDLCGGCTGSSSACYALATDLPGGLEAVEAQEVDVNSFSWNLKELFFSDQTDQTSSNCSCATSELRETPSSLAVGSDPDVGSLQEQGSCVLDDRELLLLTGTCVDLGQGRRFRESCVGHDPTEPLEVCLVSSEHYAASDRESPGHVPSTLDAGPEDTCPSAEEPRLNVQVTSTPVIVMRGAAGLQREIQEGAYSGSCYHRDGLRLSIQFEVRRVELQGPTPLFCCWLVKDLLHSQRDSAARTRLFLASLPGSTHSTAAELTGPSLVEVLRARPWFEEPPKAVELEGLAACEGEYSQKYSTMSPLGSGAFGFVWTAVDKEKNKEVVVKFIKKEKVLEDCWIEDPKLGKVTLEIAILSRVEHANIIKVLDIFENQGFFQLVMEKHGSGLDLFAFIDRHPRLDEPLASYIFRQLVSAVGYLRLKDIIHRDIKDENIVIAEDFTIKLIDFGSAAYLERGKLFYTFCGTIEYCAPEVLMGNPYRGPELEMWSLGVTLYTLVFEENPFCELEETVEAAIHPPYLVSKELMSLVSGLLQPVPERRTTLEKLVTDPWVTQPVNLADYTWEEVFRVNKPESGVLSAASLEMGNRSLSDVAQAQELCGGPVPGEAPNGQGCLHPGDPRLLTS

Take `Cn1cc(-n2cnc3c(NCc4nc5cc(Cl)c(Cl)cc5[nH]4)nc(N4CCOCC4)nc32)cn1`: the % of control in assay [1] turned out to be 3.54%.

Take `COc1cc(N(C)c2ccnc3ccc(C(F)(F)F)cc23)cc(OC)c1OC`: the % binding in [2] stood at 77%; in [3], 89%.

In [4], `CN(C)CCOc1ccc(-c2nc(-c3ccncc3)c(-c3ccc4c(c3)CC/C4=N\O)[nH]2)cc1` gave a % of control of 83%.

Compound `Nc1cnc(N2CCc3cc(S(=O)(=O)Nc4c(F)cc(Cl)cc4F)cc(N4CCCC4=O)c32)nc1` [TP-020n] yielded a % of control in assay [5] of 100%.

`CCC(=O)N1CC[C@H](Nc2ncnc3c2CN(c2cnc(OC)c(C(F)(F)F)c2)CC3)C1` [LENIOLISIB] returned an EC50 in assay [6] of 83 nM.

Turning to `CC[C@@H]1[C@H](F)C(=O)N[C@@H]1COc1nccc2cc(C(N)=O)c(OC)cc12` [ZIMLOVISERTIB], the % of inhibition in [7] was 1.51%; in assay [8] (at 0.01 µM), 3.3%; in assay [8] (at 0.04 µM), -3.6%; in assay [8] (at 0.2 µM), -8.9%; in assay [8] (at 1 µM), -13.7%; in assay [8] (at 5 µM), -7.8%.

Regarding `Cc1cnc(Nc2ccc(F)cc2Cl)nc1-c1c[nH]c(C(=O)N[C@H](CO)c2cccc(Cl)c2)c1`, the % of inhibition in [9] was found to be 19%.

`C=CC(=O)Nc1cccc(C(=O)Nc2ccc(Nc3cc(-c4[nH]c(SC)nc4C)ccn3)cc2)c1`: the % of control in assay [10] (at 1 µM) was determined as 84%; in assay [10] (at 5 µM) it was 56%.

Turning to `Cc1cc(CN)cc(C)c1-c1ncn(C)c1-c1cncn1C`, the dTagg in [11] came out at 0.2 K.
